Source: patent publication US20220000110A1, “COMPOSITIONS COMPRISING PYRIDINE CARBOXYLATE HERBICIDES AND CELLULOSE BIOSYNTHESIS INHIBITOR HERBICIDES” (priority 2018, published 2022)

Assays:
Assay in all cases: Greenhouse postemergence herbicidal effect, visual injury after 20-22 d
Type in all cases: in vivo
[1] = system: Abutilon theophrasti (velvetleaf); settings: ABUTH
Text: (§1) Greenhouse Trial Methodology—Evaluation of Postemergence Herbicidal Effect
(§2) Seeds of the desired test plant species were planted in a 90:10% v/v (volume/volume) mixture of PRO-MIX® BX (Premier Tech Horticulture, Quakertown, Pa., USA) and PROFILE® GREENS GRADE™ (Profile Products LLC, Buffalo Grove, Ill., USA) planting mixture, which typically has a pH of 5.2 to 6.2 and an organic matter content of at least 50 percent, in plastic pots with a surface area of 103.2 square centimeters (cm^2). In some aspects, to help ensure good germination and healthy plants, a fungicide treatment and/or other chemical or physical treatment was applied. The plants were grown for 7-36 days (d) in a greenhouse with an approximate 14-hour (h) photoperiod which was maintained at about 23° C. during the day and 22° C. during the night. Nutrients and water were added on a regular basis and supplemental lighting was provided with overhead metal halide 1000-Watt lamps as necessary. The plants were employed for testing when they reached the second or third true leaf stage.
(§3) Emulsifiable concentrates of each of each pyridine carboxylate herbicide (Compound A or Compound B) were prepared at 100 grams acid equivalent per liter (g ae/L). The emulsifiable concentrates also included a safener, at 120 grams active ingredient per liter (g ai/L). An aliquot of each emulsifiable concentrate was placed in a 25 mL glass vial and diluted with an aqueous mixture of 1.25% (v/v) ACTIROB® B esterified rapeseed oil (Bayer Crop Science, Research Triangle Park, N.C., USA) or MSO® Concentrate with LECI-TECH® methylated soybean oil (Loveland Products, Loveland, Colo., USA) to obtain concentrated stock solutions at the highest application rate for each herbicide, based upon a 12 milliliter (mL) application volume at a rate of 187 liters per hectare (L/ha). The concentrated stock solutions were further diluted with an aqueous mixture of 1.25% v/v ACTIROB® B or MSO® Concentrate with LECI-TECH® to obtain stock solutions at reduced application rates for each herbicide. Spray solutions of the herbicide combinations (Compound A or Compound B plus the CBI herbicide) were prepared by adding weighed amounts or aliquots of the CBI herbicide to the stock solutions of Compound A or Compound B to form 12-mL spray solutions in two-way combinations.
(§4) The spray solutions were applied to the plant material with an overhead Mandel track sprayer equipped with 8002E nozzles calibrated to deliver 187 L/ha over an application area of 0.503 square meters (m^2) at a spray height of 18 inches (43 centimeters (cm)) above the average plant canopy. Control plants were sprayed in the same manner with the solvent blank. All pyridine carboxylate herbicide (component a) application rates are given as “g ae/ha” and all CBI herbicide (component b) application rates are given as “g ai/ha.”
(§5) The treated plants and control plants were placed in a greenhouse as described above and watered by sub-irrigation to prevent wash-off of the test compounds. After 20-22 d, the condition of the test plants as compared with that of the control plants was determined visually and scored on a scale of 0 to 100 percent where 0 corresponds to no injury and 100 corresponds to complete kill.

[2] = system: Amaranthus retroflexus (pigweed); settings: AMARE
Text: as §1, §2, §3, §4, §5

[3] = system: Brassica napus (spring rape); settings: BRSNN
Text: as §1, §2, §3, §4, §5

[4] = system: Brassica napus (winter rape); settings: BRSNW
Text: as §1, §2, §3, §4, §5

[5] = system: Chenopodium album L. (common lambsquarters); settings: CHEAL
Text: as §1, §2, §3, §4, §5

[6] = system: Cirsium arvense (Canadian thistle); settings: CIRAR
Text: as §1, §2, §3, §4, §5

[7] = system: Digitaria sanguinalis (large crabgrass); settings: DIGSA
Text: as §1, §2, §3, §4, §5

[8] = system: Echinochloa crus-galli (barnyard grass); settings: ECHCG
Text: as §1, §2, §3, §4, §5

[9] = system: Ipomoea hederacea (ivyleaf morningglory); settings: IPOHE
Text: as §1, §2, §3, §4, §5

[10] = system: Kochia scoparia (kochia); settings: KCHSC
Text: as §1, §2, §3, §4, §5

[11] = system: Lolium multiflorum (Italian rye grass); settings: Table 2; LOLMU; Indaziflam 35 g/ha
Text: as §1, §2, §3, §4, §5

[12] = system: Matricaria chamomilla (wild chamomile); settings: MATCH
Text: as §1, §2, §3, §4, §5

[13] = system: Polygonum convolvulus (wild buckwheat); settings: POLCO
Text: as §1, §2, §3, §4, §5

[14] = system: Salsola kali (Russian thistle); settings: SASKR
Text: as §1, §2, §3, §4, §5

[15] = system: Setaria faberi (giant foxtail); settings: SETFA
Text: as §1, §2, §3, §4, §5

[16] = system: Viola tricolor (wild pansy); settings: VIOTR
Text: as §1, §2, §3, §4, §5

[17] = system: Cyperus esculentus (nutsedge); settings: Table 1; CYPES; Isoxaben 50 g/ha
Text: as §1, §2, §3, §4, §5

[18] = system: Euphorbia heterophylla (poinsettia); settings: Table 1; EPHHL; Isoxaben 50 g/ha
Text: as §1, §2, §3, §4, §5

[19] = system: Glycine max (soybean); settings: Table 1; GLXMA; Isoxaben 50 g/ha
Text: as §1, §2, §3, §4, §5

[20] = system: Helianthus annuus (common sunflower); settings: Table 1; HELAN; Isoxaben 50 g/ha
Text: as §1, §2, §3, §4, §5

[21] = system: Oryza sativa (common rice); settings: Table 1; ORYSA; Isoxaben 50 g/ha
Text: as §1, §2, §3, §4, §5

[22] = system: Rumex obtusifolius (broad-leaf dock); settings: Table 1; RUMOB; Isoxaben 50 g/ha
Text: as §1, §2, §3, §4, §5

[23] = system: Sorghum vulgare (grain sorghum); settings: Table 1; SORVU; Isoxaben 50 g/ha
Text: as §1, §2, §3, §4, §5

[24] = system: Stellaria media (chickweed); settings: Table 1; STEME; Isoxaben 50 g/ha
Text: as §1, §2, §3, §4, §5

Cc1ccc2c(c1)[C@H](Nc1nc(N)nc(C(C)F)n1)[C@@H](C)C2 (some centres unmarked) [Indaziflam, indaziflam, reference compound]
Obs % visual injury ([1]; Table 2, Indaziflam 35 g/ha): 60%
Obs % visual injury ([2]; Table 3, Indaziflam 35 g/ha): 23%
Obs % visual injury ([2]; Table 3, Indaziflam 70 g/ha): 33%
Obs % visual injury ([3]; Table 2, Indaziflam 35 g/ha): 30%
Obs % visual injury ([4]; Table 3, Indaziflam 35 g/ha): 45%
Obs % visual injury ([4]; Table 3, Indaziflam 70 g/ha): 45%
Obs % visual injury ([5]; Table 3, Indaziflam 35 g/ha): 10%
Obs % visual injury ([5]; Table 3, Indaziflam 70 g/ha): 10%
Obs % visual injury ([6]; Table 2, Indaziflam 35 g/ha): 5%
Obs % visual injury ([7]; Table 2, Indaziflam 35 g/ha): 0%
Obs % visual injury ([8]; Table 2, Indaziflam 35 g/ha): 0%
Obs % visual injury ([9]; Table 2, Indaziflam 35 g/ha): 10%
Obs % visual injury ([10]; Table 2, Indaziflam 35 g/ha): 40%
Obs % visual injury ([10]; Table 3, Indaziflam 35 g/ha): 28%
Obs % visual injury ([10]; Table 3, Indaziflam 70 g/ha): 30%
Obs % visual injury [11]: 0%
Obs % visual injury ([12]; Table 3, Indaziflam 35 g/ha): 13%
Obs % visual injury ([12]; Table 3, Indaziflam 70 g/ha): 38%
Obs % visual injury ([13]; Table 2, Indaziflam 35 g/ha): 10%
Obs % visual injury ([13]; Table 3, Indaziflam 35 g/ha): 10%
Obs % visual injury ([13]; Table 3, Indaziflam 70 g/ha): 13%
Obs % visual injury ([14]; Table 3, Indaziflam 35 g/ha): 55%
Obs % visual injury ([14]; Table 3, Indaziflam 70 g/ha): 60%
Obs % visual injury ([15]; Table 2, Indaziflam 35 g/ha): 0%
Obs % visual injury ([16]; Table 2, Indaziflam 35 g/ha): 5%

CCC(C)(CC)c1cc(NC(=O)c2c(OC)cccc2OC)on1 [Isoxaben, isoxaben, reference compound]
Obs % visual injury ([1]; Table 1, Isoxaben 50 g/ha): 5%
Obs % visual injury ([2]; Table 1, Isoxaben 50 g/ha): 10%
Obs % visual injury ([2]; Table 4, Isoxaben 50 g/ha): 20%
Obs % visual injury ([2]; Table 4, Isoxaben 100 g/ha): 10%
Obs % visual injury ([3]; Table 1, Isoxaben 50 g/ha): 55%
Obs % visual injury ([4]; Table 4, Isoxaben 50 g/ha): 53%
Obs % visual injury ([4]; Table 4, Isoxaben 100 g/ha): 60%
Obs % visual injury ([5]; Table 1, Isoxaben 50 g/ha): 0%
Obs % visual injury ([5]; Table 4, Isoxaben 50 g/ha): 0%
Obs % visual injury ([5]; Table 4, Isoxaben 100 g/ha): 0%
Obs % visual injury ([6]; Table 1, Isoxaben 50 g/ha): 8%
Obs % visual injury [17]: 0%
Obs % visual injury ([7]; Table 1, Isoxaben 50 g/ha): 0%
Obs % visual injury ([8]; Table 1, Isoxaben 50 g/ha): 5%
Obs % visual injury [18]: 15%
Obs % visual injury [19]: 0%
Obs % visual injury [20]: 18%
Obs % visual injury ([9]; Table 1, Isoxaben 50 g/ha): 3%
Obs % visual injury ([10]; Table 1, Isoxaben 50 g/ha): 13%
Obs % visual injury ([10]; Table 4, Isoxaben 50 g/ha): 5%
Obs % visual injury ([10]; Table 4, Isoxaben 100 g/ha): 5%
Obs % visual injury ([12]; Table 4, Isoxaben 50 g/ha): 15%
Obs % visual injury ([12]; Table 4, Isoxaben 100 g/ha): 15%
Obs % visual injury [21]: 0%
Obs % visual injury ([13]; Table 1, Isoxaben 50 g/ha): 0%
Obs % visual injury ([13]; Table 4, Isoxaben 50 g/ha): 0%
Obs % visual injury ([13]; Table 4, Isoxaben 100 g/ha): 0%
Obs % visual injury [22]: 0%
Obs % visual injury ([14]; Table 4, Isoxaben 50 g/ha): 0%
Obs % visual injury ([14]; Table 4, Isoxaben 100 g/ha): 5%
Obs % visual injury ([15]; Table 1, Isoxaben 50 g/ha): 5%
Obs % visual injury [23]: 8%
Obs % visual injury [24]: 0%
Obs % visual injury ([16]; Table 1, Isoxaben 50 g/ha): 0%
